Assay results: ChEMBL document CHEMBL5050851, “Compounds that induce ferroptic cell death” (2020)
Activity calls are given as the source filed them. The calls are words filed in the database; no cut-off is given here.

Key:
ES-2 [1] = experiment: Antiproliferative activity against human ES2 cells assessed as cell death after 72 hrs by Alamar blue viability assay; format: functional, cell-based; settings: ES-2, 72 h
HCT-116 [2] = experiment: Antiproliferative activity against human HCT-116 cells assessed as cell death after 72 hrs by Alamar blue viability assay; format: functional, cell-based; settings: HCT-116, 72 h
HCT-116 [3] = experiment: Induction of cell death in human HCT-116 cells at 5 to 25 uM in presence of 2 uM ferrostatin-1 and measured after 10 hrs; format: functional, cell-based; settings: dose 5-25 µM
HCT-116 [4] = experiment: Induction of ROS-induced lipid peroxidation in human HCT-116 cells at 10 uM pretreated with DFO and measured after 1 hr; format: functional, cell-based
4T1 [5] = experiment: Induction of cell death in mouse 4T1 cells at 5 to 25 uM in presence of 250 uM trolox and measured after 18 hrs; format: functional, cell-based; settings: dose 5-25 µM
ES-2 [6] = experiment: Induction of cell death in human ES2 cells at 5 to 25 uM in presence of 2 uM ferrostatin-1 and measured after 14 hrs; format: functional, cell-based; settings: dose 5-25 µM
ES-2 [7] = experiment: Induction of PARP-1 cleavage in human ES2 cells measured after 1 to 7 hrs; format: functional, cell-based; settings: time 1-7 hrs
4T1 [8] = experiment: Induction of cell death in mouse 4T1 cells at 5 to 25 uM in presence of 2 uM ferrostatin-1 and measured after 18 hrs; format: functional, cell-based; settings: dose 5-25 µM
[9] = Hemolytic activity in human RBC measured by hemolysis assay; format: toxicity, cell-based; settings: erythrocyte
A549 [10] = experiment: Induction of cell death in human A549 cells at 5 to 25 uM in presence of 100 uM DFO and measured after 12 hrs; format: functional, cell-based; settings: dose 5-25 µM
4T1 [11] = experiment: Antitumor activity against mouse 4T1 cells xenografted immunocompetent Balb/c mouse assessed as tumor growth inhibition at 50 mg/kg, ip administered twice a week as 5 doses; format: functional; settings: 4T1, ip, read-out: TGI
HFF-1 = experiment: Antiproliferative activity against human HFF-1 cells after 72 hrs by Alamar blue viability assay; format: functional, cell-based; settings: HFF-1, 72 h
4T1 [12] = experiment: Induction of ROS-induced lipid peroxidation in mouse 4T1 cells at 10 uM measured after 1 hr; format: functional, cell-based
ES-2 [13] = experiment: Induction of ROS production in human ES2 cells at 10 to 25 uM measured by MitoSox red fluorescence assay; format: functional, cell-based; settings: dose 10-25 µM
A549 [14] = experiment: Induction of cell death in human A549 cells at 5 to 25 uM in presence of 2 uM ferrostatin-1 and measured after 12 hrs; format: functional, cell-based; settings: dose 5-25 µM
HCT-116 [15] = experiment: Antiproliferative activity against human HCT-116 cells at 10 uM pretreated with 25 uM pan-caspase inhibitor Q-VD-OPh and assessed as induction of cell death measured after 13 hrs; format: functional, cell-based
ES-2 [16] = experiment: Antiproliferative activity against human ES2 cells at 10 uM pretreated with 25 uM pan-caspase inhibitor Q-VD-OPh and assessed as induction of cell death measured after 13 hrs; format: functional, cell-based
[17] = target: T1, Thioredoxin, mitochondrial (Homo sapiens) (UniProt Q99757); experiment: Inhibition of thioredoxin in human HCT-116 cells at 20 uM relative to control; format: cell-based
T1 sequence (whole entry): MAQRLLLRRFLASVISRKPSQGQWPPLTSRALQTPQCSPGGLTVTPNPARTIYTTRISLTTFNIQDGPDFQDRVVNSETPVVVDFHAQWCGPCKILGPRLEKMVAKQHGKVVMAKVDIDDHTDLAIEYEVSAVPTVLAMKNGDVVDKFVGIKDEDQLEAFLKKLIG

HCT-116 [18] = experiment: Induction of cell death in human HCT-116 cells at 5 to 25 uM in presence of 100 uM DFO and measured after 10 hrs; format: functional, cell-based; settings: dose 5-25 µM
4T1 [19] = experiment: Antitumor activity against mouse 4T1 cells xenografted immunodeficient SCID mouse assessed as tumor growth at 50 mg/kg, ip administered twice a week as 5 doses; format: functional, organism-based
Staphylococcus aureus = experiment: Antibacterial activity against Staphylococcus aureus; format: functional
ES-2 [20] = experiment: Induction of cell death in human ES2 cells at 5 to 25 uM in presence of 250 uM trolox and measured after 14 hrs; format: functional, cell-based; settings: dose 5-25 µM
HCT-116 [21] = experiment: Induction of ROS production in human HCT-116 cells at 5 to 25 uM measured by carboxy-H2DCFDA fluorescence assay; format: functional, cell-based; settings: dose 5-25 µM
ES-2 [22] = experiment: Induction of apoptosis in human ES2 cells assessed as change in cell membrane blebbing; format: functional, cell-based
[23] = Half-life in C57BL/6 mouse at 40 mg/kg, ip; format: ADME, organism-based; settings: in vivo
ES-2 [24] = experiment: Induction of cell death in human ES2 cells at 5 to 25 uM in presence of 100 uM DFO and measured after 14 hrs; format: functional, cell-based; settings: dose 5-25 µM
HCT-116 [25] = experiment: Induction of ROS-induced lipid peroxidation in human HCT-116 cells at 10 uM measured after 1 hr; format: functional, cell-based
A549 [26] = experiment: Induction of cell death in human A549 cells at 5 to 25 uM in presence of 5 mM NAC and measured after 12 hrs; format: functional, cell-based; settings: dose 5-25 µM
ES-2 [27] = experiment: Induction of apoptosis in human ES2 cells assessed as change in chromatin condensation; format: functional, cell-based
4T1 [28] = experiment: Induction of ROS-induced lipid peroxidation in mouse 4T1 cells at 10 uM pretreated with DFO and measured after 1 hr; format: functional, cell-based
ES-2 [29] = experiment: Induction of ROS-induced lipid peroxidation in human ES2 cells at 10 uM pretreated with DFO and measured after 1 hr; format: functional, cell-based
ES-2 [30] = experiment: Antiproliferative activity against human ES2 cells at 10 uM assessed as time to induce 50% cell death measured by Annexin V/propidium iodide staining method; format: functional
[31] = AUC in C57BL/6 mouse at 40 mg/kg, ip; format: ADME, organism-based; design: dose 40 mg/kg; settings: in vivo
HCT-116 [32] = experiment: Antiproliferative activity against human HCT-116 cells at 10 uM assessed as time to induce 50% cell death measured by Annexin V/propidium iodide staining method; format: functional
[33] = target: T2, Phospholipid hydroperoxide glutathione peroxidase GPX4 (Homo sapiens) (UniProt P36969); experiment: Inhibition of GPX4 in human ES2 cells at 10 uM measured after 1 hr by phosphotidylcholine hydroperoxide (PCOOH) LC-MS based assay relative to control; format: cell-based
T2 sequence (whole entry): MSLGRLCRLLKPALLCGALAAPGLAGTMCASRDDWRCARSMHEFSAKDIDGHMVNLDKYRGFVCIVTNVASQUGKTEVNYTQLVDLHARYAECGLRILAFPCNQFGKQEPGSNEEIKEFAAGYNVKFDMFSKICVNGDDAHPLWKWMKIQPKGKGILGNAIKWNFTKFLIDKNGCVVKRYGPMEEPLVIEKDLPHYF

MCF-10A = experiment: Antiproliferative activity against human MCF-10A cells after 72 hrs by Alamar blue viability assay; format: functional, cell-based
A549 [34] = experiment: Induction of cell death in human A549 cells at 5 to 25 uM in presence of 250 uM trolox and measured after 12 hrs; format: functional, cell-based; settings: dose 5-25 µM
HCT-116 [35] = experiment: Induction of cell death in human HCT-116 cells at 5 to 25 uM in presence of 5 mM NAC and measured after 10 hrs; format: functional, cell-based; settings: dose 5-25 µM
Escherichia coli = experiment: Antibacterial activity against Escherichia coli; format: functional
ES-2 [36] = experiment: Induction of ROS production in human ES2 cells at 5 to 25 uM measured by carboxy-H2DCFDA fluorescence assay; format: functional, cell-based; settings: dose 5-25 µM
HCT-116 [37] = experiment: Induction of cell death in human HCT-116 cells at 5 to 25 uM in presence of 250 uM trolox and measured after 10 hrs; format: functional, cell-based; settings: dose 5-25 µM
HCT-116 [38] = experiment: Induction of PARP-1 cleavage in human HCT-116 cells measured after 1 to 7 hrs; format: functional, cell-based; settings: time 1-7 hrs
4T1 [39] = experiment: Induction of cell death in mouse 4T1 cells at 5 to 25 uM in presence of 100 uM DFO and measured after 18 hrs; format: functional, cell-based; settings: dose 5-25 µM
[40] = target: T1, Thioredoxin, mitochondrial (Homo sapiens); experiment: Inhibition of human thioredoxin at 0.5 to 10 uM measured after 30 mins relative to control; settings: dose 0.5-10 µM
MIA PaCa-2 = experiment: Antiproliferative activity against human MIA PaCa-2 cells at 10 uM assessed as time to induce 50% cell death measured by Annexin V/propidium iodide staining method; format: functional
ES-2 [41] = experiment: Induction of ROS-induced lipid peroxidation in human ES2 cells at 10 uM measured after 1 hr; format: functional, cell-based

## CO[C@H]1C[C@@]23CC[C@@H](C)[C@@](C)([C@H](OC(C)=O)C[C@@H](C4=CCn5c(=O)n(-c6ccccc6)c(=O)n5C4)[C@@H]2C)[C@]3(O)C1=O
ES-2 [1]
  IC50: > 100 µM
HCT-116 [2]
  IC50: > 100 µM

## CO[C@H]1C[C@@]23CC[C@@H](C)[C@@](C)([C@H](OC(=O)c4ccco4)C[C@@H](C4=CCn5c(=O)n(-c6ccccc6)c(=O)n5C4)[C@@H]2C)[C@]3(O)C1=O
ES-2 [1]
  IC50: > 100 µM
HCT-116 [2]
  IC50: > 100 µM

## C[C@@H]1CC[C@@]23C[C@H](O)C(=O)[C@@]2(O)[C@]1(C)[C@H](OC(=O)CCl)C[C@@H](C1=CCC2C(=O)N(c4ccccc4)C(=O)C2C1)[C@@H]3C (some centres not stated)
ES-2 [1]
  IC50: 2.5 µM
HCT-116 [2]
  IC50: 6.4 µM

## C=CC(=C)[C@@H]1C[C@@H](OC(=O)CCl)[C@]2(C)[C@H](C)CC[C@]3(C[C@H](O)C(=O)[C@]32O)[C@H]1C
ES-2 [1]
  IC50: 6.7 µM

## C[C@@H]1CC[C@@]23C[C@H](O)C(=O)[C@@]2(O)[C@]1(C)[C@H](OC(=O)CCl)C[C@@H](C1=CCn2c(=O)n(-c4ccccc4)c(=O)n2C1)[C@@H]3C
HCT-116 [3]
  Activity: inactive
HCT-116 [4]
  Activity: inactive
4T1 [5]
  Activity: inactive
ES-2 [6]
  Activity: inactive
ES-2 [7]
  Activity: inactive
4T1 [8]
  Activity: inactive
[9]
  Activity: Non-Toxic
A549 [10]
  Activity: inactive
4T1 [11]
  inhibition in vivo at 50 mg/kg: 40%
HFF-1
  IC50: 4.1 µM
4T1 [12]
  Activity: Active
ES-2 [13]
  Activity: Active
A549 [14]
  Activity: inactive
HCT-116 [15]
  Activity: Active
ES-2 [16]
  Activity: Active
[17]
  inhibition: Active
HCT-116 [18]
  Activity: inactive
4T1 [19]
  Activity: inactive
Staphylococcus aureus
  MIC: > 64 µg/mL
ES-2 [20]
  Activity: inactive
ES-2 [1]
  IC50: 1.6 µM
HCT-116 [21]
  Activity: Active
ES-2 [22]
  Activity: inactive
[23]
  half-life: 9.96 min
ES-2 [24]
  Activity: inactive
HCT-116 [25]
  Activity: Active
A549 [26]
  Activity: inactive
ES-2 [27]
  Activity: inactive
4T1 [28]
  Activity: inactive
HCT-116 [2]
  IC50: 3.5 µM
ES-2 [29]
  Activity: inactive
ES-2 [30]
  Time: 1 h
[31]
  AUC: 7040 ng·h/mL
HCT-116 [32]
  Time: 7 h
[33]
  inhibition: inactive
MCF-10A
  IC50: 3.1 µM
A549 [34]
  Activity: inactive
HCT-116 [35]
  Activity: inactive
Escherichia coli
  MIC: > 64 µg/mL
ES-2 [36]
  Activity: Active
HCT-116 [37]
  Activity: inactive
HCT-116 [38]
  Activity: inactive
4T1 [39]
  Activity: inactive
[40]
  inhibition: Active
MIA PaCa-2
  Time: 1.5 h
ES-2 [41]
  Activity: Active

## CO[C@H]1C[C@@]23CC[C@@H](C)[C@@](C)([C@H](OC(=O)C(Cl)Cl)C[C@@H](C4=CCn5c(=O)n(-c6ccccc6)c(=O)n5C4)[C@@H]2C)[C@]3(O)C1=O
ES-2 [1]
  IC50: > 100 µM
HCT-116 [2]
  IC50: > 100 µM

## CC(=O)OCC(=O)O[C@@H]1C[C@@H](C2=CCn3c(=O)n(-c4ccccc4)c(=O)n3C2)[C@H](C)[C@@]23CC[C@@H](C)[C@]1(C)[C@]2(O)C(=O)[C@@H](O)C3
ES-2 [1]
  IC50: > 100 µM
HCT-116 [2]
  IC50: > 100 µM
